Assays:
[1] = system: persian speedwell; test: Test Example 4: herbicidal effect by soil treatment (Table 19, symbol R); type: in vivo, Persian speedwell (Veronica persica); settings: amount of applied herbicide 320 g/ha
How it was run: (§1)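 Soil-surface application: an emulsion agent diluted with water to the predetermined dose is sprayed uniformly over seeds lying under roughly 1.5 cm of sterilized diluvial soil. Boxes stay in a greenhouse at 25° C. to 30° C. Three weeks later, each species is graded on previously defined criteria.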

[2] = system: green foxtail; test: Test Example 4: herbicidal effect by soil treatment (Table 19, symbol G); type: in vivo, green foxtail (Setaria viridis); settings: amount of applied herbicide 320 g/ha
How it was run: as §1

[3] = system: wild oat; test: Test Example 5: herbicidal effect by foliage application, plastic box (Table 20, symbol I); type: in vivo, wild oat (Avena fatua); settings: foliage application, 320 g/ha, three weeks after application
How it was run: (§2)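 Sow seeds spot-wise in sterilized diluvial soil; cover with ~1.5 cm soil. Grow 14 days in greenhouse, 25° C. to 30° C. Spray foliage with emulsion diluted to predetermined amount. Rate effect after 3 weeks.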

[4] = system: rice flat sedge; test: Test Example 3: herbicidal effect by foliage application, Wagner pot (Table 18, symbol E); type: in vivo, rice flat sedge (Cyperus iria); settings: 320 g/ha
How it was run: (§3)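 Plants were sown in alluvial soil held under 0.1–0.5 cm standing water and grown 14 days in a greenhouse at 25–30 °C. An emulsifiable formulation, water-diluted to the set dose, was then sprayed onto the foliage, and effects were scored three weeks later using previously defined criteria.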

[5] = system: lambsquarters; test: Test Example 4: herbicidal effect by soil treatment (Table 19, symbol O); type: in vivo, lambsquarters (Chenopodium album); settings: amount of applied herbicide 320 g/ha
How it was run: as §1

[6] = system: redroot pigweed; test: Test Example 4: herbicidal effect by soil treatment (Table 19, symbol N); type: in vivo, redroot pigweed (Amaranthus retroflexus); settings: amount of applied herbicide 320 g/ha
How it was run: as §1

[7] = system: barnyard grass; test: Test Example 5: herbicidal effect by foliage application, plastic box (Table 20, symbol H); type: in vivo, barnyard grass (Echinochloa crus-galli); settings: foliage application, 320 g/ha, three weeks after application
How it was run: as §2

[8] = system: barnyard grass; test: Test Example 3: herbicidal effect by foliage application, Wagner pot (Table 18, symbol H); type: in vivo, barnyard grass (Echinochloa crus-galli); settings: 320 g/ha
How it was run: as §3

[9] = system: windgrass; test: Test Example 4: herbicidal effect by soil treatment (Table 19, symbol L); type: in vivo, windgrass (Apera spica-venti); settings: amount of applied herbicide 320 g/ha
How it was run: as §1

[10] = system: velvetleaf; test: Test Example 4: herbicidal effect by soil treatment (Table 19, symbol M); type: in vivo, velvetleaf (Abutilon theophrasti); settings: amount of applied herbicide 320 g/ha
How it was run: as §1

[11] = system: blackgrass; test: Test Example 4: herbicidal effect by soil treatment (Table 19, symbol J); type: in vivo, blackgrass (Alopecurus myosuroides); settings: amount of applied herbicide 320 g/ha
How it was run: as §1

[12] = system: windgrass; test: Test Example 5: herbicidal effect by foliage application, plastic box (Table 20, symbol L); type: in vivo, windgrass (Apera spica-venti); settings: foliage application, 320 g/ha, three weeks after application
How it was run: as §2

[13] = system: chickweed; test: Test Example 4: herbicidal effect by soil treatment (Table 19, symbol P); type: in vivo, common chickweed (Stellaria media); settings: amount of applied herbicide 320 g/ha
How it was run: as §1

[14] = system: velvetleaf; test: Test Example 5: herbicidal effect by foliage application, plastic box (Table 20, symbol M); type: in vivo, velvetleaf (Abutilon theophrasti); settings: foliage application, 320 g/ha, three weeks after application
How it was run: as §2

[15] = system: southern crabgrass; test: Test Example 5: herbicidal effect by foliage application, plastic box (Table 20, symbol F); type: in vivo, southern crabgrass (Digitaria ciliaris); settings: foliage application, 320 g/ha, three weeks after application
How it was run: as §2

[16] = system: persian speedwell; test: Test Example 5: herbicidal effect by foliage application, plastic box (Table 20, symbol R); type: in vivo, Persian speedwell (Veronica persica); settings: foliage application, 320 g/ha, three weeks after application
How it was run: as §2

[17] = system: Chinese sprangletop; test: Test Example 3: herbicidal effect by foliage application, Wagner pot (Table 18, symbol D); type: in vivo, chinese sprangletop (Leptochloa chinensis); settings: 320 g/ha
How it was run: as §3

[18] = system: wild oat; test: Test Example 4: herbicidal effect by soil treatment (Table 19, symbol I); type: in vivo, wild oat (Avena fatua); settings: amount of applied herbicide 320 g/ha
How it was run: as §1

[19] = system: chickweed; test: Test Example 5: herbicidal effect by foliage application, plastic box (Table 20, symbol P); type: in vivo, common chickweed (Stellaria media); settings: foliage application, 320 g/ha, three weeks after application
How it was run: as §2

[20] = system: blackgrass; test: Test Example 5: herbicidal effect by foliage application, plastic box (Table 20, symbol J); type: in vivo, blackgrass (Alopecurus myosuroides); settings: foliage application, 320 g/ha, three weeks after application
How it was run: as §2

[21] = system: Italian ryegrass; test: Test Example 5: herbicidal effect by foliage application, plastic box (Table 20, symbol K); type: in vivo, Italian ryegrass (Lolium multiflorum); settings: foliage application, 320 g/ha, three weeks after application
How it was run: as §2

[22] = system: barnyard grass; test: Test Example 4: herbicidal effect by soil treatment (Table 19, symbol H); type: in vivo, barnyard grass (Echinochloa crus-galli); settings: amount of applied herbicide 320 g/ha
How it was run: as §1

[23] = system: redroot pigweed; test: Test Example 5: herbicidal effect by foliage application, plastic box (Table 20, symbol N); type: in vivo, redroot pigweed (Amaranthus retroflexus); settings: foliage application, 320 g/ha, three weeks after application
How it was run: as §2

[24] = system: southern crabgrass; test: Test Example 4: herbicidal effect by soil treatment (Table 19, symbol F); type: in vivo, southern crabgrass (Digitaria ciliaris); settings: amount of applied herbicide 320 g/ha
How it was run: as §1

[25] = system: false cleavers; test: Test Example 5: herbicidal effect by foliage application, plastic box (Table 20, symbol Q); type: in vivo, false cleavers (Galium spurium); settings: foliage application, 320 g/ha, three weeks after application
How it was run: as §2

[26] = system: Italian ryegrass; test: Test Example 4: herbicidal effect by soil treatment (Table 19, symbol K); type: in vivo, Italian ryegrass (Lolium multiflorum); settings: amount of applied herbicide 320 g/ha
How it was run: as §1

[27] = system: false cleavers; test: Test Example 4: herbicidal effect by soil treatment (Table 19, symbol Q); type: in vivo, false cleavers (Galium spurium); settings: amount of applied herbicide 320 g/ha
How it was run: as §1

[28] = system: green foxtail; test: Test Example 5: herbicidal effect by foliage application, plastic box (Table 20, symbol G); type: in vivo, green foxtail (Setaria viridis); settings: foliage application, 320 g/ha, three weeks after application
How it was run: as §2

[29] = system: lambsquarters; test: Test Example 5: herbicidal effect by foliage application, plastic box (Table 20, symbol O); type: in vivo, lambsquarters (Chenopodium album); settings: foliage application, 320 g/ha, three weeks after application
How it was run: as §2

| SMILES | herbicidal effect rating, R: persian speedwell [1] | herbicidal effect rating, G: green foxtail [2] | herbicidal effect grade, I: wild oat [3] | herbicidal effect on E (rice flat sedge), rating 0-5 [4] | herbicidal effect rating, O: lambsquarters [5] | herbicidal effect rating, N: redroot pigweed [6] | herbicidal effect grade, H: barnyard grass [7] | herbicidal effect on H (barnyard grass), rating 0-5 [8] | herbicidal effect rating, L: windgrass [9] | herbicidal effect rating, M: velvetleaf [10] | herbicidal effect rating, J: blackgrass [11] | herbicidal effect grade, L: windgrass [12] | herbicidal effect rating, P: chickweed [13] | herbicidal effect grade, M: velvetleaf [14] | herbicidal effect grade, F: southern crabgrass [15] | herbicidal effect grade, R: persian speedwell [16] | herbicidal effect on D (Chinese sprangletop), rating 0-5 [17] | herbicidal effect rating, I: wild oat [18] | herbicidal effect grade, P: chickweed [19] | herbicidal effect grade, J: blackgrass [20] | other results |
| --- | --- | --- | --- | --- | --- | --- | --- | --- | --- | --- | --- | --- | --- | --- | --- | --- | --- | --- | --- | --- | --- |
| Cc1nn(C)c(=O)c(-c2c(-c3ccc(F)c(F)c3)sc3ccccc23)c1O [1-046] | 5 (Herbicidal rate of 90% or more (almost completely withered)) | 0 (Herbicidal rate of 5% or less (almost no effect)) | 3 (Herbicidal rate of 40% or more and less than 70%) | 5 (Herbicidal rate of 90% or more (almost completely withered)) | 0 (Herbicidal rate of 5% or less (almost no effect)) | 0 (Herbicidal rate of 5% or less (almost no effect)) | 4 (Herbicidal rate of 70% or more and less than 90%) | 3 (Herbicidal rate of 40% or more and less than 70%) | 0 (Herbicidal rate of 5% or less (almost no effect)) | 0 (Herbicidal rate of 5% or less (almost no effect)) | 0 (Herbicidal rate of 5% or less (almost no effect)) | 0 (Herbicidal rate of 5% or less (almost no effect)) | 5 (Herbicidal rate of 90% or more (almost completely withered)) | 5 (Herbicidal rate of 90% or more (almost completely withered)) | 4 (Herbicidal rate of 70% or more and less than 90%) | 5 (Herbicidal rate of 90% or more (almost completely withered)) | 0 (Herbicidal rate of 5% or less (almost no effect)) | 0 (Herbicidal rate of 5% or less (almost no effect)) | 5 (Herbicidal rate of 90% or more (almost completely withered)) | 0 (Herbicidal rate of 5% or less (almost no effect)) | herbicidal effect grade, K: Italian ryegrass [21]: 3 (Herbicidal rate of 40% or more and less than 70%); herbicidal effect rating, H: barnyard grass [22]: 0 (Herbicidal rate of 5% or less (almost no effect)); herbicidal effect grade, N: redroot pigweed [23]: 5 (Herbicidal rate of 90% or more (almost completely withered)); herbicidal effect rating, F: southern crabgrass [24]: 0 (Herbicidal rate of 5% or less (almost no effect)); herbicidal effect grade, Q: false cleavers [25]: 5 (Herbicidal rate of 90% or more (almost completely withered)); herbicidal effect rating, K: Italian ryegrass [26]: 0 (Herbicidal rate of 5% or less (almost no effect)); herbicidal effect rating, Q: false cleavers [27]: 5 (Herbicidal rate of 90% or more (almost completely withered)); herbicidal effect grade, G: green foxtail [28]: 4 (Herbicidal rate of 70% or more and less than 90%); herbicidal effect grade, O: lambsquarters [29]: 4 (Herbicidal rate of 70% or more and less than 90%) |
| COc1cccc(-c2sc3ccccc3c2-c2c(O)c(C)nn(C)c2=O)c1F [1-048] | 1 (Herbicidal rate of 5% or more and less than 20%) | 0 (Herbicidal rate of 5% or less (almost no effect)) | 0 (Herbicidal rate of 5% or less (almost no effect)) | 4 (Herbicidal rate of 70% or more and less than 90%) | 0 (Herbicidal rate of 5% or less (almost no effect)) | 0 (Herbicidal rate of 5% or less (almost no effect)) | 0 (Herbicidal rate of 5% or less (almost no effect)) | 4 (Herbicidal rate of 70% or more and less than 90%) | 0 (Herbicidal rate of 5% or less (almost no effect)) | 0 (Herbicidal rate of 5% or less (almost no effect)) | 0 (Herbicidal rate of 5% or less (almost no effect)) | 0 (Herbicidal rate of 5% or less (almost no effect)) | 3 (Herbicidal rate of 40% or more and less than 70%) | 0 (Herbicidal rate of 5% or less (almost no effect)) | 0 (Herbicidal rate of 5% or less (almost no effect)) | 4 (Herbicidal rate of 70% or more and less than 90%) | 5 (Herbicidal rate of 90% or more (almost completely withered)) | 0 (Herbicidal rate of 5% or less (almost no effect)) | 5 (Herbicidal rate of 90% or more (almost completely withered)) | 0 (Herbicidal rate of 5% or less (almost no effect)) | herbicidal effect grade, K: Italian ryegrass [21]: 0 (Herbicidal rate of 5% or less (almost no effect)); herbicidal effect rating, H: barnyard grass [22]: 0 (Herbicidal rate of 5% or less (almost no effect)); herbicidal effect grade, N: redroot pigweed [23]: 0 (Herbicidal rate of 5% or less (almost no effect)); herbicidal effect rating, F: southern crabgrass [24]: 0 (Herbicidal rate of 5% or less (almost no effect)); herbicidal effect grade, Q: false cleavers [25]: 0 (Herbicidal rate of 5% or less (almost no effect)); herbicidal effect rating, K: Italian ryegrass [26]: 0 (Herbicidal rate of 5% or less (almost no effect)); herbicidal effect rating, Q: false cleavers [27]: 0 (Herbicidal rate of 5% or less (almost no effect)); herbicidal effect grade, G: green foxtail [28]: 0 (Herbicidal rate of 5% or less (almost no effect)); herbicidal effect grade, O: lambsquarters [29]: 0 (Herbicidal rate of 5% or less (almost no effect)) |

From US20230085307A1, “PYRIDAZINONE COMPOUND AND HERBICIDE” (NISSAN CHEMICAL CORPORATION, priority 2019, published 2023)
